Data from ChEMBL document CHEMBL1131716, “Heterocycle-peptide hybrid compounds. Aminotriazole-containing agonists of the thrombin receptor (PAR-1)” (Bioorg Med Chem Lett, 1999).
Where a SMILES comes first, the peptide text is derived from it. [ ]: non-standard residue; d: D form. The star is where a group is joined. Cha = N[C@@H](CC1CCCCC1)C(=O)O; Nicotinoyl = O=C(c1cccnc1)*; 3Abz = Nc1cccc(C(=O)O)c1; 4Abz = Nc1ccc(C(=O)O)cc1; βAla = NCCC(=O)O

Legend:
[1] = target: T1, Proteinase-activated receptor 1 (Homo sapiens, UniProt P25116); assay: Inhibition of [3H]S-(p-F-Phe)-Har-L-Har-KY-NH2 binding to thrombin receptor (PAR-1) on membranes from CHRF cells; type: cell membranes
T1 sequence (P25116 whole entry): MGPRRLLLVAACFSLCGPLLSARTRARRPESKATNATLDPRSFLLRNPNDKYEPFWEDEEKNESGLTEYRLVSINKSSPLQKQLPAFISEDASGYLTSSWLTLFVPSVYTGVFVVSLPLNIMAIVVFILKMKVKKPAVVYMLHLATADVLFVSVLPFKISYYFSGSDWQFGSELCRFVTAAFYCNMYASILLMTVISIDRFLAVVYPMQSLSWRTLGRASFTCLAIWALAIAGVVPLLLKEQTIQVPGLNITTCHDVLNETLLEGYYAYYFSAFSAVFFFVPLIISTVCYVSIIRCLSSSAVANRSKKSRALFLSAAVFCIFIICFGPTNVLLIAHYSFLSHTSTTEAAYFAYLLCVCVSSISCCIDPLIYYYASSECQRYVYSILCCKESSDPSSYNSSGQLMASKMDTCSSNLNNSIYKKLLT

Homo sapiens = organism: Homo sapiens; assay: Antagonist activity by using human gel-filtered platelet aggregation; type: functional
[2] = target: T1, Proteinase-activated receptor 1; assay: Inhibition of [3H]S-(p-F-Phe)-Har-L-Har-KY-NH2 binding to Thrombin receptor 1 (PAR-1) on membranes from CHRF cells; type: cell membranes
[3] = target: T2, Proteinase-activated receptor 1 (Homo sapiens) (UniProt P25116); assay: Evaluated for activation of human platelet aggregation (gel-filtered platelets) induced by alpha thrombin at 50 uM; type: functional
T2 sequence (whole entry): T1 sequence (P25116 whole entry)

| SMILES | IC50 [1] [µM] | percent activation of platelet aggregation [3] [%] | further results |
| --- | --- | --- | --- |
| N=C(N)NCCC[C@H](NC(=O)[C@H](CC1CCCCC1)NC(=O)c1nccnc1N)C(=O)N[C@@H](Cc1ccccc1)C(N)=O | 8.5 |  |  |
| N=C(N)NCCC[C@H](NC(=O)[C@H](CC1CCCCC1)NC(=O)c1n[nH]c(NC(=O)/C=C/c2ccccc2)n1)C(=O)N[C@@H](Cc1ccccc1)C(N)=O |  |  | IC50 (Homo sapiens): 9.8 µM; IC50 [2]: 6.4 µM |
| N=C(N)NCCC[C@H](NC(=O)[C@H](CC1CCCCC1)NC(=O)c1cccnc1Cl)C(=O)N[C@@H](Cc1ccccc1)C(N)=O | 7.6 | < 20 |  |
| N=C(N)NCCC[C@H](NC(=O)[C@H](CC1CCCCC1)NC(=O)c1n[nH]c(NC(=O)/C=C/c2ccccc2[N+](=O)[O-])n1)C(=O)N[C@@H](Cc1ccccc1)C(N)=O | 1.6 |  |  |
| N=C(N)NCCC[C@H](NC(=O)[C@H](CC1CCCCC1)NC(=O)c1n[nH]c(NC(=O)/C=C/c2ccc(F)cc2)n1)C(=O)N[C@@H](Cc1ccccc1)C(N)=O |  |  | IC50 [2]: 1.2 µM |
| N=C(N)NCCC[C@H](NC(=O)[C@H](CC1CCCCC1)NC(=O)c1n[nH]c(N)n1)C(=O)N[C@@H](Cc1ccccc1)C(N)=O | 1.9 |  |  |
| N=C(N)NCCC[C@H](NC(=O)[C@H](CC1CCCCC1)NC(=O)c1n[nH]c(NC(=O)/C=C/c2cccs2)n1)C(=O)N[C@@H](Cc1ccccc1)C(N)=O | 4.4 |  |  |
| N=C(N)NCCC[C@H](NC(=O)[C@H](CC1CCCCC1)NC(=O)c1cc(=O)c2ccccc2o1)C(=O)N[C@@H](Cc1ccccc1)C(N)=O | 1.6 |  |  |
| N=C(N)NCCC[C@H](NC(=O)[C@H](CC1CCCCC1)NC(=O)c1ccc(Cl)nc1)C(=O)N[C@@H](Cc1ccccc1)C(N)=O | 2.4 |  |  |
| N=C(N)NCCC[C@H](NC(=O)[C@H](CC1CCCCC1)NC(=O)c1ccccn1)C(=O)N[C@@H](Cc1ccccc1)C(N)=O | 4.4 |  |  |
| N=C(N)NCCC[C@H](NC(=O)[C@H](CC1CCCCC1)NC(=O)c1n[nH]c(NC(=O)/C=C/c2ccc(C(F)(F)F)cc2)n1)C(=O)N[C@@H](Cc1ccccc1)C(N)=O |  |  | IC50 [2]: 30 µM |
| N=C(N)NCCC[C@H](NC(=O)[C@H](CC1CCCCC1)NC(=O)c1cc2ccccc2o1)C(=O)N[C@@H](Cc1ccccc1)C(N)=O |  |  | IC50 [2]: 3 µM |
| N=C(N)NCCC[C@H](NC(=O)[C@H](CC1CCCCC1)NC(=O)c1n[nH]c(NC(=O)/C=C/c2cccc3ccccc23)n1)C(=O)N[C@@H](Cc1ccccc1)C(N)=O | 16 |  | IC50 (Homo sapiens): 5.4 µM |
| N=C(N)NCCC[C@H](NC(=O)[C@H](CC1CCCCC1)NC(=O)c1nnc(N)[nH]1)C(=O)N[C@@H](Cc1cccs1)C(N)=O | 4 |  |  |
| N=C(N)NCCC[C@H](NC(=O)[C@H](CC1CCCCC1)NC(=O)CCN)C(=O)N[C@@H](Cc1ccccc1)C(N)=O (H-[βAla][Cha]RF-NH2) | 9 |  |  |
| N=C(N)NCCC[C@H](NC(=O)[C@H](CC1CCCCC1)NC(=O)C1C=CC=NC1=O)C(=O)N[C@@H](Cc1ccccc1)C(N)=O (some centres not stated) | 16 | 26 |  |
| CC(C)C[C@H](NC(=O)[C@H](CC(C)C)NC(=O)[C@H](Cc1ccccc1)NC(=O)[C@@H](N)CO)C(=O)N[C@@H](CCCN=C(N)N)C(=O)N[C@@H](CC(N)=O)C(N)=O | 0.55 |  |  |
| N=C(N)NCCC[C@H](NC(=O)[C@H](CC1CCCCC1)NC(=O)/C=C/c1cccnc1)C(=O)N[C@@H](Cc1ccccc1)C(N)=O | 5.5 |  |  |
| C[C@H](NC(=O)[C@H](CC1CCCCC1)NC(=O)c1n[nH]c(N)n1)C(=O)N[C@@H](Cc1ccccc1)C(N)=O | 18 | < 20 |  |
| N=C(N)NCCC[C@H](NC(=O)[C@H](CC1CCCCC1)NC(=O)c1ccc[nH]1)C(=O)N[C@@H](Cc1ccccc1)C(N)=O | 10 | 55 |  |
| N=C(N)NCCC[C@H](NC(=O)[C@H](CC1CCCCC1)NC(=O)c1csnn1)C(=O)N[C@@H](Cc1ccccc1)C(N)=O | 9.4 |  |  |
| NCCC(=O)N[C@@H](CC1CCCCC1)C(=O)N[C@@H](CCCN=C(N)N)C(=O)N[C@@H](Cc1ccccc1)C(N)=O (H-[βAla][Cha]RF-NH2) |  | 30 |  |
| N=C(N)NCCC[C@H](NC(=O)[C@H](CC1CCCCC1)NC(=O)c1n[nH]c(NC(=O)/C=C/c2cccc([N+](=O)[O-])c2)n1)C(=O)N[C@@H](Cc1ccccc1)C(N)=O |  |  | IC50 [2]: 8.5 µM |
| N=C(N)NCCC[C@H](NC(=O)[C@H](CC1CCCCC1)NC(=O)c1ccc2c(c1)-c1ccccc1-2)C(=O)N[C@@H](Cc1ccccc1)C(N)=O | 2.4 |  |  |
| N=C(N)NCCC[C@H](NC(=O)[C@H](CC1CCCCC1)NC(=O)c1nnc(N)[nH]1)C(=O)N[C@H](C(N)=O)c1ccccc1 | 7 |  |  |

| SMILES | IC50 [1] [µM] | percent activation of platelet aggregation [3] [%] | further results |
| --- | --- | --- | --- |
| N=C(N)NCCC[C@H](NC(=O)[C@H](CC1CCCCC1)NC(=O)c1ccc(N)nc1)C(=O)N[C@@H](Cc1ccccc1)C(N)=O | 2 |  |  |
| N=C(N)NCCC[C@H](NC(=O)[C@H](CC1CCCCC1)NC(=O)c1ccc(N)cc1)C(=O)N[C@@H](Cc1ccccc1)C(N)=O (H-[4Abz][Cha]RF-NH2) | 2.9 | 40 |  |
| N=C(N)NCCC[C@H](NC(=O)[C@H](CC1CCCCC1)NC(=O)c1ccc(-c2ccccc2)cc1)C(=O)N[C@@H](Cc1ccccc1)C(N)=O | 13 | 56 |  |
| N=C(N)NCCC[C@H](NC(=O)[C@H](Cc1ccccc1)NC(=O)c1nnc(N)[nH]1)C(=O)N[C@@H](Cc1ccccc1)C(N)=O | 2 |  |  |
| N=C(N)NCCC[C@H](NC(=O)[C@H](CC1CCCCC1)NC(=O)c1n[nH]c(NC(=O)/C=C/c2ccc(Cl)cc2)n1)C(=O)N[C@@H](Cc1ccccc1)C(N)=O |  |  | IC50 [2]: 1.4 µM |
| COc1ccc(/C=C/C(=O)Nc2n[nH]c(C(=O)N[C@@H](CC3CCCCC3)C(=O)N[C@@H](CCCN=C(N)N)C(=O)N[C@@H](Cc3ccccc3)C(N)=O)n2)cc1 |  |  | IC50 [2]: 4 µM |
| N=C(N)NCCC[C@H](NC(=O)[C@H](CC1CCCCC1)NC(=O)C1=COc2ccccc2O1)C(=O)N[C@@H](Cc1ccccc1)C(N)=O | 16 | < 20 |  |
| N=C(N)NCCC[C@H](NC(=O)[C@H](Cc1ccccc1)NC(=O)c1ccc2[nH]cnc2c1)C(=O)N[C@@H](Cc1ccccc1)C(N)=O | 4 |  |  |
| N=C(N)NCCC[C@H](NC(=O)[C@H](CC1CCCCC1)NC(=O)c1n[nH]c(NC(=O)/C(F)=C/c2ccccc2)n1)C(=O)N[C@@H](Cc1ccccc1)C(N)=O |  |  | IC50 (Homo sapiens): 28 µM |
| N=C(N)NCCC[C@H](NC(=O)[C@H](CC1CCCCC1)NC(=O)c1cccnc1N)C(=O)N[C@@H](Cc1ccccc1)C(N)=O | 2.3 |  |  |
| N=C(N)NCCC[C@H](NC(=O)[C@H](CC1CCCCC1)NC(=O)c1n[nH]c(NC(=O)/C=C/c2cccc(Cl)c2)n1)C(=O)N[C@@H](Cc1ccccc1)C(N)=O |  |  | IC50 [2]: 15 µM |
| N=C(N)NCCC[C@H](NC(=O)[C@H](CC1CCCCC1)NC(=O)c1n[nH]c(NC(=O)/C=C/c2c[nH]c3ccccc23)n1)C(=O)N[C@@H](Cc1ccccc1)C(N)=O | 100 |  |  |
| N=C(N)NCCC[C@H](NC(=O)[C@H](CC1CCCCC1)NC(=O)c1n[nH]c(NC(=O)/C=C/c2ccccc2Cl)n1)C(=O)N[C@@H](Cc1ccccc1)C(N)=O |  |  | IC50 (Homo sapiens): 3.6 µM; IC50 [2]: 1.4 µM |
| N=C(N)NCCC[C@H](NC(=O)[C@H](CC1CCCCC1)NC(=O)c1cc2ccccc2[nH]1)C(=O)N[C@@H](Cc1ccccc1)C(N)=O | 56 | 21 |  |
| N=C(N)NCCC[C@H](NC(=O)[C@H](CC1CCCCC1)NC(=O)c1cnc(Cl)c(Cl)c1)C(=O)N[C@@H](Cc1ccccc1)C(N)=O |  | 32 | IC50 [2]: 2.6 µM |
| N=C(N)NCCC[C@H](NC(=O)[C@H](CC1CCCCC1)NC(=O)c1n[nH]c(N)n1)C(=O)N[C@@H](Cc1c[nH]cn1)C(N)=O | 27 | < 20 |  |
| N=C(N)NCCC[C@H](NC(=O)[C@H](CC1CCCCC1)NC(=O)c1cccc(N)c1)C(=O)N[C@@H](Cc1ccccc1)C(N)=O (H-[3Abz][Cha]RF-NH2) | 2 |  |  |
| N=C(N)NCCC[C@H](NC(=O)[C@H](CC1CCCCC1)NC(=O)c1cnc2ccccc2n1)C(=O)N[C@@H](Cc1ccccc1)C(N)=O | 3.1 |  |  |
| N=C(N)NCCC[C@H](NC(=O)[C@H](CC1CCCCC1)NC(=O)c1ccncc1)C(=O)N[C@@H](Cc1ccccc1)C(N)=O | 7 | 26 |  |
| C[C@H](NC(=O)c1n[nH]c(N)n1)C(=O)N[C@@H](CCCN=C(N)N)C(=O)N[C@@H](Cc1ccccc1)C(N)=O | 46 | < 20 |  |
| N=C(N)NCCC[C@H](NC(=O)[C@H](CC1CCCCC1)NC(=O)c1cccnc1)C(=O)N[C@@H](Cc1ccccc1)C(N)=O (Nicotinoyl-[Cha]-Arg-Phe-NH2) | 1.3 |  |  |
| NCCCC[C@H](NC(=O)[C@H](CC1CCCCC1)NC(=O)c1n[nH]c(N)n1)C(=O)N[C@@H](Cc1ccccc1)C(N)=O | 5.4 |  |  |
| N=C(N)NCCC[C@H](NC(=O)[C@H](CC1CCCCC1)NC(=O)c1ccoc1)C(=O)N[C@@H](Cc1ccccc1)C(N)=O | 25 | 38 |  |
| N=C(N)NCCC[C@H](NC(=O)[C@H](CC1CCCCC1)NC(=O)c1cc2ccccc2s1)C(=O)N[C@@H](Cc1ccccc1)C(N)=O | 2.3 |  |  |
| N=C(N)NCCC[C@H](NC(=O)[C@H](CC1CCCCC1)NC(=O)/C=C/c1ccccc1)C(=O)N[C@@H](Cc1ccccc1)C(N)=O | 5 | 20 |  |
